Results as given in patent US20060079512A1, “Dibenzodiazepinone analogues, processes for their production and their use as pharmaceuticals” (Ecopia BioSciences, Inc., priority 2003, published 2006).
Like-named read-outs stand apart in the source and are kept apart here.

What was measured:
[1] = Tissue concentrations 30 min after administration; assay type: in vivo, female Crl: CD1 mice; conditions: 30 mg/kg
Description: Compounds 1 and 2 were separately dissolved in ethanol (5%), Polysorbate 80 (15%), PEG 400 (5%) and dextrose (5%) at a final concentration of 6 mg/ml (for all parenteral administration routes). For oral administration, Compound 1 was solubilized in Cremophor® EU Ethanol (50%:50%) at a final concentration of 6 mg/ml. Prior to dosing, animals (female Crl: CD1 mice; 6 weeks of age, 22-24 g) were weighed, randomly selected and assigned to the different treatment groups. Compound 1 was administered by the intravenous (iv), subcutaneous (sc), intraperitoneal (ip), or oral (po) route to the assigned animals. Compound 2 was administered by the intravenous (iv), or intraperitoneal (ip) route to the assigned animals. The dosing volume of Compounds 1 and 2 was 5 mL per kg body weight. Animals were anesthetized with 5% isoflurane prior to bleeding. Blood was collected into microtainer tubes containing the anticoagulant K2EDTA by cardiac puncture from each of 4 animals per bleeding timepoint (2 min, 5 min, 15 min, 30 min, 1 h, 2 h, 4 h and 8 h). Following collection, the samples were centrifuged and the plasma obtained from each sample was recovered and stored frozen (at approximately −80° C.) pending analysis. […] Samples were analysed by LC/MS/MS. […]

[2] = tested on: MDA-MB-231 (mammary gland adenocarcinoma); assay: In vitro cytotoxic activity (GI50), method (b), propidium iodide; assay type: cell-based; conditions: Homo sapiens, 96 hrs
Description: (§1) Row H was filled wih medium only (150 μL, negative control-medium).

[3] = tested on: HT-29 (colorectal carcinoma); assay: as above; assay type: cell-based; conditions: Homo sapiens, 96 hrs
Description: as §1

SF268 (CNS) = assay: as above; assay type: cell-based; conditions: Homo sapiens, SF-268, 96 hrs
Description: as §1

[4] = tested on: PC-3 (prostate adenocarcinoma); assay: as above; assay type: cell-based; conditions: 96 hrs
Description: as §1

[5] = tested on: HT-29, SF-268, PC-3, MDA-MB-231; assay: Average GI50 over the four cell lines, method (b); assay type: cell-based; conditions: for GI50: values > 30 not considered
Description: as §1

[6] = Pharmacokinetic profile, plasma concentrations by LC/MS/MS; assay type: in vivo, female Crl: CD1 mice; conditions: 30 mg/kg; for half-life: plasma; for Cmax / AUC: mice plasma; for Cmax: read-out: observed Cmax
Description: Compounds 1 and 2 were separately dissolved in ethanol (5%), Polysorbate 80 (15%), PEG 400 (5%) and dextrose (5%) at a final concentration of 6 mg/ml (for all parenteral administration routes). For oral administration, Compound 1 was solubilized in Cremophor® EU Ethanol (50%:50%) at a final concentration of 6 mg/ml. Prior to dosing, animals (female Crl: CD1 mice; 6 weeks of age, 22-24 g) were weighed, randomly selected and assigned to the different treatment groups. Compound 1 was administered by the intravenous (iv), subcutaneous (sc), intraperitoneal (ip), or oral (po) route to the assigned animals. Compound 2 was administered by the intravenous (iv), or intraperitoneal (ip) route to the assigned animals. The dosing volume of Compounds 1 and 2 was 5 mL per kg body weight. Animals were anesthetized with 5% isoflurane prior to bleeding. Blood was collected into microtainer tubes containing the anticoagulant K2EDTA by cardiac puncture from each of 4 animals per bleeding timepoint (2 min, 5 min, 15 min, 30 min, 1 h, 2 h, 4 h and 8 h). Following collection, the samples were centrifuged and the plasma obtained from each sample was recovered and stored frozen (at approximately −80° C.) pending analysis. At the 5 min and 30 min time points, the following organs were harvested from each animal: brain, lungs, skeletal muscle, fat tissue, kidneys, spleen, thymus and liver. Tissues were frozen (at approximately −80° C.) pending analysis. Samples were analysed by LC/MS/MS.
Plasma values of Compounds 1 and 2 falling below the limit of quantitation (LOQ) were set to zero. […] The following pharmacokinetic parameters were calculated: area under the plasma concentration versus time curve from time zero to the last measurable concentration time point (AUC0-t), area under the plasma concentration versus time curve extrapolated to infinity (AUCinf), maximum observed plasma concentration (Cmax), time of maximum plasma concentration (tmax), apparent first-order terminal elimination rate constant (kel), apparent first-order terminal elimination half-life will be calculated as 0.693/kel (t1/2). The systemic clearance (CL) of Compound 1 after intravenous administration was calculated using Dose/AUCinf. Pharmacokinetic parameters were calculated using Kinetica™ 4.1.1 (InnaPhase Corporation, Philadelphia, Pa.).

[7] = female, Crl: CD1, mouse, iv, read-out: AUC

Row | Compound | tissue distribution ([1]; iv and ip dosing) | tissue levels ([1]; sc dosing, compared with ip) | GI50 [2] | GI50 [3] | GI50 (SF268 (CNS)) | GI50 [4] | GI50 [5] | half-life ([6]; female, Crl: CD1, mouse, iv, I.V., read-out: half life t1/2 α) | half-life ([6]; female, Crl: CD1, mouse, iv, I.V., read-out: half life t1/2 β (converted)) | Cmax ([6]; female, Crl: CD1, mouse, ip) | AUC [6, 7] | Cmax ([6]; female, Crl: CD1, mouse, iv) | AUC ([6]; ip) | drug levels after oral administration ([6]; oral) | orally bioavailable level ([6]; oral) | anticancer activity compared with Compound 1 ([5]; four cell lines) | half-life ([6]; female, Crl: CD1, mouse, ip, IP administration, read-out: half life (t1/2)) | half-life ([6]; female, Crl: CD1, mouse, iv, IV administration, read-out: half life (t1/2)) | AUC ([6]; female, Crl: CD1, mouse, ip, read-out: AUC)
1 | CC(C)=CCC/C(C)=C/CC/C(C)=C/CN1C(=O)c2cccc(O)c2Nc2c(O)cc(O)cc21 [Compound 1, 10-farnesyl-4,6,8-trihydroxy-5,10-dihydrodibenzo[b,e][1,4]diazepin-11-one] | well distributed | significantly lower | 3.18 µM | 9.33 µM | 1.55 µM | 3.76 µM | 4.45 µM | 0.0767 h | 2.56 h | 2.25 µg/mL | 40.4 µM·h | 130 µg/mL | 9.5 ˜M·h | moderate but sustained drug levels | 5-8% | – | – | – | –
2 | CC(C)=CCC/C(C)=C/CC/C(C)=C/CN1C(=O)c2cccc(O)c2N(C)c2c(O)cc(O)cc21 [Compound 2, 10-farnesyl-4,6,8-trihydroxy-5-methyl-5,10-dihydro-dibenzo[b,e][1,4]diazepin-11-one] | – | – | 0.24 µM | 0.65 µM | 0.12 µM | 0.45 µM | 0.36 µM | – | – | 5.8 µg/mL | 92.1 µM·h | 105 µg/mL | – | – | – | better anticancer activity than Compound 1 | > 40 h | > 40 h | 58.8 µM·h
